# Test results taken from US20220168295A1, “RIMEGEPANT FOR CGRP RELATED DISORDERS” (Biohaven Pharmaceutical Ireland DAC, priority 2018, published 2022).
# Assays:
# [1] = Pooled liver function test (LFT) profile, Study 301 and Study 302; assay type: in vivo, human; settings: pooled Study 301 and 302; n = 1089
# Experimental: (§1) In a double-blind, randomized, placebo-controlled, multicenter study (Study 301, NCT03235479) adults 3.8 years of age with at least a 1-year history of ICHD 3-beta migraine were eligible to participate. Following a 3- to 28-day screening period, subjects were randomized to receive rimegepant 75 mg or matching placebo and instructed to treat a single migraine attack with 1 dose of the blinded study drug (rimegepant or placebo) when headache pain reached moderate or severe intensity. The coprimary endpoints were pain freedom at 2 hours postdose and freedom from the most bothersome symptom (MBS) at 2 hours postdose. Safety assessments included adverse events (AEs), ECGs, vital signs, physical measurements, and routine laboratory tests, including assessment of liver function. Unless stated otherwise, values presented are mean±SD.
# as §1, with “302, NCT03237845)” for “301, NCT03235479)”, “≥18” for “3.8”
# patients with migraine = experiment: Study 201 (BHV3000-201) open label long-term safety study, rimegepant 75 mg oral tablet, acute treatment of migraine; assay type: in vivo, human; settings: for >= 20.0% decrease in migraines (headache days) per month, subjects n (%) / >= 25.0% decrease in migraines (headache days) per month, subjects n (%) / >= 30.0% decrease in migraines (headache days) per month, subjects n (%) / >= 35.0% decrease in migraines (headache days) per month, subjects n (%) / >= 40.0% decrease in migraines (headache days) per month, subjects n (%) / >= 45.0% decrease in migraines (headache days) per month, subjects n (%) / >= 50.0% decrease in migraines (headache days) per month, subjects n (%): Study 201, Overall, n 1731
# Experimental: Clinical Trial-BHV3000-201: Open Label Safety Study in Acute Treatment of Migraine (ClinicalTrials.gov Identifier: NCT 03266588) A phase 2/3 clinical study is conducted with about 2000 participants, as follows. The purpose of this study is to evaluate safety and tolerability of BHV3000 (rimegepant). • Study Type: Interventional (Clinical Trial) • Estimated Enrollment: 2000 participants • Intervention Model: Single Group Assignment • Masking: None (Open Label) • Primary Purpose: Treatment • Official Title: A Multicenter, Open Label Long-Term Safety Study of BHV3000 in the Acute Treatment of Migraine • Actual Study Start Date: Aug. 30, 2017 • Estimated Primary Completion Date: July 2019 • Estimated Study Completion Date: July 2019 [table] 1. To assess the safety and tolerability of rimegepant (BHV-3000) by measuring the frequency and severity of adverse events and discontinuations due to adverse events [Time Frame: 52 weeks] Number of subjects with treatment-emergent adverse events as assessed through laboratory tests, ECGs, physical exam findings (safety and tolerability) 1. ALT or […] with total bilirubin >2×ULN [Time Frame: 52 weeks] elevated liver function tests 2. hepatic related adverse events and hepatic related adverse events that lead to discontinuation [Time Frame: 52 weeks] adverse events related to liver
smiles,measurement,setting,value
"N[C@@H]1c2cccnc2[C@H](OC(=O)N2CCC(n3c(=O)[nH]c4ncccc43)CC2)CC[C@H]1c1cccc(F)c1F [Rimegepant, [(5S,6S,9R)-5-amino-6-(2,3-difluorophenyl)-6,7,8,9-tetrahydro-5H-cyclohepta[b]pyridin-9-yl] 4-(2-oxo-3H-imidazo[4,5-b]pyridin-1-yl)piperidine-1-carboxylate]","ALT >3x ULN, subjects n (%)",[1],1 (0.1%) n (%)
same,"ALT >5x ULN, subjects",[1],0
same,"ALT >10x ULN, subjects",[1],0
same,"ALT >20x ULN, subjects",[1],0
same,"ALT >ULN, subjects n (%)",[1],22 (2.0%) n (%)
same,"AST >3x ULN, subjects n (%)",[1],1 (0.1%) n (%)
same,"AST >5x ULN, subjects",[1],0
same,"AST >10x ULN, subjects",[1],0
same,"AST >20x ULN, subjects",[1],0
same,"AST >ULN, subjects n (%)",[1],12 (1.1%) n (%)
same,">= 20.0% decrease in migraines (headache days) per month, subjects n (%)",patients with migraine,683 (39.5%) n (%)
same,">= 25.0% decrease in migraines (headache days) per month, subjects n (%)",patients with migraine,602 (34.8%) n (%)
same,">= 30.0% decrease in migraines (headache days) per month, subjects n (%)",patients with migraine,523 (30.2%) n (%)
same,">= 35.0% decrease in migraines (headache days) per month, subjects n (%)",patients with migraine,442 (25.5%) n (%)
same,">= 40.0% decrease in migraines (headache days) per month, subjects n (%)",patients with migraine,362 (20.9%) n (%)
same,">= 45.0% decrease in migraines (headache days) per month, subjects n (%)",patients with migraine,287 (16.6%) n (%)
same,">= 50.0% decrease in migraines (headache days) per month, subjects n (%)",patients with migraine,226 (13.1%) n (%)
same,">= 20.0% decrease in migraines (headache days) per month, subjects n (%)",patients with migraine; listed as BHV-3000,683 (39.5) n (%)
same,">= 25.0% decrease in migraines (headache days) per month, subjects n (%)",patients with migraine; listed as BHV-3000,602 (34.8) n (%)
same,">= 30.0% decrease in migraines (headache days) per month, subjects n (%)",patients with migraine; listed as BHV-3000,523 (30.2) n (%)
same,">= 35.0% decrease in migraines (headache days) per month, subjects n (%)",patients with migraine; listed as BHV-3000,442 (25.5) n (%)
same,">= 40.0% decrease in migraines (headache days) per month, subjects n (%)",patients with migraine; listed as BHV-3000,362 (20.9) n (%)
same,">= 45.0% decrease in migraines (headache days) per month, subjects n (%)",patients with migraine; listed as BHV-3000,287 (16.6) n (%)
same,">= 50.0% decrease in migraines (headache days) per month, subjects n (%)",patients with migraine; listed as BHV-3000,226 (13.1) n (%)
same,Incidence of serum ALT or AST >3xULN,"patients with migraine; Study 201 interim analysis, 75 mg up to once daily, long-term",1.0%
same,Liver safety signal,"patients with migraine; Study 201 interim analysis, including near-daily dosing subset",no liver safety signal detected
same,Liver cases assessed as probably related to study drug,"patients with migraine; Study 201 interim analysis, independent liver panel",no liver cases
